The text below walks through data of patent US11458153B2, “Drug delivery composition comprising a self-assembled gelator” (The Brigham and Women's Hospital, Inc., priority 2008, dated 2022).

“Also recorded” adds a separate entry of the source.

The nature of series [1]: Gelation studies with Apn-based prodrug gelators in water and organic solvents. The format is physicochemical. Further details: key to Gelation ability: G = gel; P = precipitate; S = soluble; I = insoluble. From the text:
Gelation Studies with Prodrug-Based Gelators. Gelation abilities of Apn based amphiphilic prodrugs have been investigated thoroughly in a wide range of solvents. For detailed gelation results, see Table 1, below). Typically, the required amount of gelator was placed in a glass vial and with an appropriate solvent. […] The resulting solution was slowly cooled to room temperature and gelation was visually observed. […] Despite of prolonged heating Apn-11-CH3 was not soluble in water. […] In addition, Apn-7-COOH is soluble in basic solutions (pH is more than 8).
All gels were opaque in nature and stable for several weeks.
Preparation of Gels. Typically, gelator (0.1-5 mg) and required solvent (0.1-1 mL) were placed into a 2 mL scintillation vial, which was then sealed with a screw cap. The vial was heated with shaking until the solid was completely dissolved.

Series [2] relates to mesenchymal stem cells (MSCs). The series can be described thus: MSC viability, trypan blue exclusion. The series is classed as cell-based, human. As to conditions: 250 μM, 48 hours incubation. On the procedure:
Cytocompatibility. The cytocompatibility of prodrugs generated from small modification of known drugs was investigated. […] To test the cyto compatibility of prodrug-based amphiphiles and bolaamphiphiles, and their effect on cell characteristics such as viability, proliferation, adhesion and cell phenotype, a series of experiments was performed with mesenchymal stem cells (MSCs). To gain more insight into the effect of modification, unmodified drug Apn was used as a control. The viability of control cells and cells treated with Apn, Apn-7-COOH and Apn-8-Apn was examined with trypan blue assay. Use of Mesenchymal stem cells is appropriate given that these systems may be used for localized release likely into connective tissues.
Mesenchymal Stem Cell Culture. Primary human mesenchymal stem cells were maintained in expansion media that consisted of 15% Fetal Bovine Serum (selected for its ability to expand MSCs), 1% (v/v) L-Glutamine, 1% (v/v) Penn-Strep, and α-MEM. All experiments were performed using MSCs at passage number 4-6.
Viability, Adhesion and Proliferation Characteristics. The viability of the cells was examined using trypan blue exclusion. […] The media was then aspirated and the cells were detached with 200 μL of cell dissociated solution (similar quantities of floating cells were observed between the groups, typically 5-10 per well). 300 μL of media was added and the total 500 μL of the cell dispersion was collected in an eppendorf tubes. From this 10 μL of cell dispersion was diluted to 1:1 with 4% trypan blue solution and cells were counted in a hemocytometer to determine the number viable (non-blue) and nonviable (blue) cells. A control for this experiment included cells treated with only phosphate buffer saline (PBS) without an amphiphile. Cell adhesion was quantified by measuring the number of adherent cells on tissue culture surfaces in 96 well plates after incubating with amphiphiles for 12 hours. For proliferation studies, 5000 cells were added to each well of a 96 well plate in 200 μL of MSC cell expansion media, and appropriate amphiphiles were then added and incubated at 37° C. and 5% CO2. Proliferation was quantified by manually tabulating the number of cells within the flask at multiple time points (1, 2, 3, 4, 6 and 8 days) with light microscopy at 10×.

Series [3] relates to mesenchymal stem cells (MSCs). The series can be described thus: MSC adipogenic differentiation, Oil Red O staining. The series is classed as cell-based, human. As to conditions: 250 μM, 23 days of induction. As for the experimental part:
(§1) Unlike typical fibroblast cell lines used for toxicity screening, cultured mesenchymal stem cells are highly sensitive to the presence of soluble factors and can often loose their capacity for multi-lineage differentiation or differentiate into non-desired lineages depending on the culture conditions. To examine the impact of the acetaminophen amphiphilic prodrugs on multi-lineage differentiation of MSCs, cells were treated with adipogenic and osteogenic induction media in presence of amphiphiles followed by respective colorimetric histological staining.
Adipogenic Differentiation. MSCs were seeded in the wells of 24 well plates, and were culture in MSC expansion media until they reach 90% confluence (note: in control samples there was no amphiphile present, whereas in experimental samples 250 μM of Apn-based amphiphile was present). Adipogenic differentiation was induced by culturing the cells for 23 days in adipogenic induction media (from Lonza—MSCs Adipogenic Single Quote kit containing h-Insulin (recombinant), L-Glutamine, Dexamethasone, Indomethacin, IBMX (3-isobuty-1-methyl-xanthine), Pen/Strep) and adipogenic maintenance media (from Lonza—MSCs Adipogenic Single Quote kit containing h-Insulin (recombinant), L-Glutamine, Pen/Strep). […] Adipogenesis was evaluated by Oil Red O staining. Following aspiration of the media, cells were washed once with PBS, and fixed in PBS with 3.7% formaldehyde for 30 min at room temperature. Following fixation cells were rinsed with distilled water for a few minutes, and incubated with isopropanol containing an Oil Red O working solution (prepared by diluting 30 mL of 0.5% isopropanol/Oil Red O solution with 20 mL of distilled water). After 45 minutes culture well were rinsed twice with distilled water and 1 mL of hematoxylin was added to each well for 1 minute followed by aspiration and washing with distilled water. The wells were viewed using an inverted phase contrast microscope.

Series [4] deals with mesenchymal stem cells (MSCs). As to the kind of experiment: MSC osteogenic differentiation, alkaline phosphatase staining. The series is classed as cell-based, human. As to conditions: 250 μM, 23 days. On the procedure:
as §1
Osteogenic Differentiation. MSCs were seeded in the wells of 24 well plates, and were culture in MSC expansion media until they reach 90% confluence (note: in control samples there was no amphiphile present, whereas in experimental samples 250 μM of Apn-based amphiphile was present). Osteogenic differentiation was induced by culturing the cells for 23 days in osteogenic induction media (from Lonza—MSCs Osteogenic Single Quote kit) containing dexamethasone, β-glycerophosphate, L-ascorbic acid-2-phosphate, and α-MEM. The media in both groups was changed every 3 days (note: each time while changing the media, 250 μM of Apn-based amphiphiles were added to maintain constant concentration). Osteogenesis was evaluated by cell membrane associated alkaline phosphatase activity. Alkaline phosphatase activity was examined after 23 days by carefully aspirating the media and washing the cells with PBS. The cells were fixed with 3.7% formaldehyde solution for 15 min at room temperature followed by rinsing with distilled water. 0.06% Red Violet LB salt solution in Tris HCl was added with distilled water containing DMF and Naphthol AS MX-PO4. The plates were incubated for 45 minutes at room temperature and then the wells were rinsed 3 times with distilled water and imaged under with inverted phase contrast microscope.

Series [5] can be described thus: Dye-encapsulated nanofibers in absence of synovial fluid (PBS). The conditions noted are these: DiD-encapsulated fibers in PBS. The format is physicochemical. From the text: In vitro. […] Fibers were isolated by repetitive centrifugation and washing steps.
For series [6] the following is noted: DiD-encapsulated fibers, synovial fluid, 37° C.
Description: In vitro. […] Fibers were incubated with synovial fluid at 37° C. that was extracted from human arthritic joints (inflamed).
The test system of series [7] is arthritis bearing mouse joints (ankles and knees). As to conditions: direct injection into joints, sectioned after 8 days, fluorescence microscopy.
Description: In vivo: DiD encapsulated nanofiber gels (salicin-deconate nanofibers, prepared as above), were directly injected into the arthritis bearing mouse joints (ankles and knees) to examine the retention of nanofibers within the joints. After 8 days, ankles and knees were sectioned and imaged under fluorescence microscopy to examine the presence of nanofibers.
In vivo: DiD encapsulated nanofiber gels were directly injected into the arthritis bearing mouse joints (ankles and knees) to examine the retention of nanofibers within the joints. After 8 days, ankles and knees were sectioned and imaged under fluorescence microscopy to examine the presence of nanofibers.
The conditions of series [8]: cited from earlier work.
The nature of series [9]: Gelation ability of polyol amphiphiles in water and organic solvents. The format is physicochemical. Further details: key: G = gel; P = precipitate; S = soluble; I = insoluble. As to conditions: solvent CHCl3. From the text: (§2) Examples of suitable solvents include water, salt water (such as a NaCl solution), different […] such as TRISZMA buffers, and alkaline and acidic solutions. In addition to water-based solutions, the compounds can gel various aromatic and non-aromatic organic solvents, such as benzene, toluene, hexane, and acetonitrile. All the gels obtained in Table 7 were thermally reversible. Above their gelation temperature, the gels dissolved in solvent, but could be returned to their original gel state upon cooling.

Test in series [10]: as above
The series is classed as physicochemical. Further details: key: G = stable gel at room temperature; P = precipitate; Sol = soluble.
Description: as §2

Take `CC(=O)Nc1ccc(OC(=O)CCCCCCC(=O)Oc2ccc(NC(C)=O)cc2)cc1` [Apn-8-Apn]: the Gelation ability result in [1] (solvent chloroform) is “S”; in series [1] (solvent ethanol), “S”; in series [1] (solvent ethyl acetate), “I”; in series [1] (solvent isopropanol) it was “S”; in series [1] (solvent methanol) it was “S”; in series [1] (solvent t-butanol), “S”. For the same molecule, the Gelation ability result in series [1] (solvent water) is “G”. Besides, in [1] (solvent water), the minimum gelation concentration was 1.1 wt/v %. In series [1] (water / aqueous solutions), the “gelation in water (in words)” value is “formed stable hydrogels”. In addition, in series [2], the viable cells was found to be 82%. Further, the “adipogenic differentiation, Oil Red O (ORO) staining” value in series [3] is “robust capacity; also recorded: equally stained for ORO”. Also, the “osteogenic differentiation, alkaline phosphatase (ALP) staining” value in [4] is recorded as “robust capacity; also recorded: equally stained for ALP”.
As to `CCCCCCCCCC(=O)OC[C@H]1O[C@@H](Oc2ccccc2CO)[C@H](O)[C@@H](O)[C@@H]1O` [Salicin-deconate], the “stability of nanofibers in absence of synovial fluid” value in series [5] was “stable (in PBS) for months”. In addition, the “period of slow degradation of fibers by enzymes” value in [6] stood at 15 days. Further, in series [7], the “presence of nanofibers in joints” value is “localized within the joints”.
As to `COc1cc(C=CC(=O)CC(=O)C=Cc2ccc(O)c(OC)c2)ccc1O` [curcumin, 1,7-bis(4-hydroxy-3methoxyphenyl)-1,6-heptadiene-3,5-dione], the “solubility of curcumin in water” value in series [8] was 0.03 µM.
`CCCCCCCCCCCC(=O)NC(CO)(CO)CO` [polyol-12]: the Gelation ability entry in series [9] was “P”; in [10] (solvent 1,4-dioxane), “Sol”; in series [10] (solvent CCl4), “G”; in series [10] (solvent CH3CN), “G”; in series [10] (solvent DMSO) it was “Sol”; in series [10] (solvent NaCl (40 mM)) it was “G”. The Gelation ability entry in series [10] (solvent TRIS (50 mM)) is recorded as “G”; in series [10] (solvent acetone), “Sol”; in series [10] (solvent acidic (pH < 3)), “G”; in [10] (solvent basic (pH > 12)), “G”; in series [10] (solvent benzene), “G”; in series [10] (solvent cyclohexane), “G”. Moreover, the Gelation ability result in [10] (solvent toluene) and in series [10] (solvent water) was “G” throughout.
